Results as given in patent publication US6225332A, “Compositions containing histamine H2 agonists and methods of use in treating allergy and inflammation” (priority 1998, dated 2001).

Key:
[1] = system: human conjunctival mast cells; assay: Miller Test: inhibition of anti-IgE-induced histamine release (mast cell stabilization assay); format: cell-based; details: for inhibition at 10 µM / inhibition at 100 µM: * p < 0.05, Dunnett's t-test (dimaprit only); for inhibition at 1000 µM: * p < 0.05, Dunnett's t-test (both compounds)
Excerpt: While mast cells exist in various tissues and species, there is considerable mast cell heterogeneity within these different sources. Therefore, in order to provide compounds of the present invention which are specific for human conjunctival mast cells, drug compounds need to be tested for inhibition of human conjunctival mast cell degranulation using human conjunctival mast cells. Such efficacy can be determined by using the method described in U.S. Pat. No. 5,360,720 (Miller et al.) and in Miller, et al., "Human conjunctival mast cell responses in vitro to various secretagogues," Ocular Immunology and Inflammation, volume 4, issue 1, pages 39-49 (1996) (the "Miller Test"), the entire contents of the forgoing patent and article are incorporated herein by reference.
The Miller Test is generally performed by the following protocol:
Human conjunctival tissue mast cells are isolated from post-mortem tissue donors obtained within 8 hours of death by various eye banks and transported in Dexsole corneal preservation medium. Tissues are then enzymatically digested by repeated exposure (30 minutes at 37° C.) to collagenase (Type IV) and hyaluronidase (Type I-S) (2 times with 200 U […] each/gram tissue, then 2-4 times with 2000 U each/gram tissue) in Tyrode's buffer containing 0.1% gelatin. Each digestion mixture is filtered over Nitex® cloth (100 µm mesh) and washed with an equal volume of buffer. Filtrates are centrifuged at 825×g (7 mininutes). Pellets are resuspended in buffer then combined for enrichment over a […] Percoll® cushion. The enriched pellet is then washed and resuspended in supplemented RPMI 1640 medium for equilibration at 37° C.
The preparations containing the mast cells are then placed in a culture medium, preferably supplemented RPMI 1640, and allowed to equilibrate at about 30°-37° C. for a minimum of about 40 hours.
After equilibrating for a minimum of about 40 hours, the cells may be harvested from the culture (for example, by gentle flushing utilizing pasteur pipettes), pooled and centrifuged.
Cell pellets may then be resuspended in buffer and viability and mast cell number determined by well known methods. The conjunctival mast cells are now prepared for use in mast cell stabilization assays.
All test drugs are placed into solution immediately prior to use. Generally, each compound is dissolved in Tyrode's buffer containing 0.1% gelatin and diluted to an appropriate concentration.
Cells are harvested from the culture plate and counted for viability (trypan blue exclusion) and mast cell number (toluidine blue O). Mast cells (5000/tube; 1 milliliter ("mL," final volume) are then challenged (37° C.) for 15 minutes with goat-anti-human IgE (10 μg/mL) following treatment (1 or 15 minutes; 37° C.) with test drug or Tyrode's buffer. Total and non-specific release controls are exposed to 0.1% Triton X-100 and goat IgG (10 μg/mL), respectively. The reaction was terminated by centrifugation (500×g, 4° C., 10 minutes). Supernatants are stored at -20° C. until analyzed for histamine content by radioimmunoassay ("RIA").
The IC50 of each compound (concentration at which 50% of the histamine release was inhibited, as compared to control) was then calculated.
The H2 agonists, dimaprit and amthamine, were tested in the Miller Test, as described in Example 1, above. Table I and FIG. 1 illustrate the efficacy of dimaprit and amthamine on the inhibition of histamine release from human conjunctival mast cells.

human skin mast cells = details: cited from earlier work
[2] = system: mast cells obtained from bronchoalveolar lavage fluid; details: 100 μM; human trials; cited from earlier work
[3] = human, in vivo; cited from earlier work
rodent mast cell = details: cited from earlier work

| SMILES | inhibition at 0.1 µM ([1]; 0.1 μM) [%] | inhibition at 1 µM [1] [%] | inhibition at 10 µM [1] [%] | inhibition at 100 µM [1] [%] | inhibition at 1000 µM [1] [%] | inhibition at 10000 µM ([1]; 10,000 μM, * p < 0.05, Dunnett's t-test) [%] | inhibition of histamine release from human skin mast cells (human skin mast cells) | inhibition of mast cells obtained from bronchoalveolar lavage fluid [2] | irritation / side effects [3] | inhibition of rodent mast cell degranulation (rodent mast cell) |
| --- | --- | --- | --- | --- | --- | --- | --- | --- | --- | --- |
| Cc1nc(N)sc1CCN [amthamine] | 11 | 3.6 ± 3.9 | 7.3 ± 6.5 | 9.9 ± 8.6 | 60.5 ± 6.2 | – | – | – | – | – |
| CN(C)CCCSC(=N)N [dimaprit] | – | 10.1 ± 4.2 | 14.4 ± 9.3 | 35 ± 3.5 | 75.9 ± 3.5 | 83.6 ± 0.9 | – | – | – | – |
| O=C(O)c1cc(=O)c2c(OCC(O)COc3cccc4oc(C(=O)O)cc(=O)c34)cccc2o1 [Disodium cromoglycate] | – | – | – | – | – | – | not inhibited at all | inhibited mast cells obtained from bronchoalveolar lavage fluid | irritating to some patients | shown to inhibit rodent mast cell degranulation |
